Earlier results in patent publication US20100227874A1, “REDUCTION OF OXIDATIVE STRESS DAMAGE DURING OR AFTER EXERCISE” (NESTEC S.A., priority 2007, published 2010).

Test system: rat adipocytes
Conditions: insulin-potentiating epididymal fat-cell assay with rat adipocytes

Row | Structure (SMILES) | Insulin activity in vitro
1 | O=C(O[C@@H]1Cc2c(O)cc(O)cc2O[C@@H]1c1ccc(O)c(O)c1)c1cc(O)c(O)c(O)c1 [epicatechin gallate] | enhance insulin activity
2 | O=C(O[C@@H]1Cc2c(O)cc(O)cc2O[C@@H]1c1cc(O)c(O)c(O)c1)c1cc(O)c(O)c(O)c1 [epigallocatechin gallate] | enhance insulin activity
